Biological target: T1, GST-hLGK1 (GK) (Homo sapiens, UniProt P35557)
T1 construct: GST (N); made in house
T1 sequence (P35557 1-464 isoform P35557-3): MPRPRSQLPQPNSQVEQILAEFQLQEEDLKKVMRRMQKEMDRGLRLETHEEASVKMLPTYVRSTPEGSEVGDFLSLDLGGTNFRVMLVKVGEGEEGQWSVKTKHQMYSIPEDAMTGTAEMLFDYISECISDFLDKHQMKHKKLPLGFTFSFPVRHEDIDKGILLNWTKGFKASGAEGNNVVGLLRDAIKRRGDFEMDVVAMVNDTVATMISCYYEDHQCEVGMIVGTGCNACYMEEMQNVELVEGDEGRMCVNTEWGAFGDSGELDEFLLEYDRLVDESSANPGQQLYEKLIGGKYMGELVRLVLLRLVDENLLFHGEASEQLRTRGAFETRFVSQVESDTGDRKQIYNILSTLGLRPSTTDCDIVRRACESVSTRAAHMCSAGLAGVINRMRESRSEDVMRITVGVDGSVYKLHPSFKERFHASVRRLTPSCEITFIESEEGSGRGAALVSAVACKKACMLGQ
Experiment: GK activation assay with GST-hLGK1 and Mant-ATP, capillary electrophoresis readout
Type: biochemical
Details: GST-hLGK1 6 μg/mL, 50 μM Mant-ATP, 25 mM D-glucose solution (10 μL) added, 37° C. for 60 min; concentration for 50% of the maximum activity value; read-out: EC50 of Exemplified Compounds against GK
Method: A 50% solution (5 μL) of the test compound in dimethyl sulfoxide was added to each well of a 384 well black plate (Nalge Nunc). Then, 35 μL of a liquid obtained by diluting GST-hLGK1 obtained in Reference Example 2A with a measurement buffer (50 mM HEPES (pH 7.4), containing 200 mM KCl, 5 mM MgCl2, 2.5 mM DTT and 50 μM 2′-(or-3′)—O—(N-methylanthraniloyl)adenosine 5′-triphosphate (Mant-ATP) (Jena Bioscience)) was added to each well to 6 μg/mL. Each well was maintained at 37° C. for 10 min, and a 25 mM D-glucose solution (10 μL) was added to start the reaction. After the start of the reaction, each well was allowed to stand at 37° C. for 60 min, before quenching the reaction by adding 25 μL of a reaction quenching solution (200 mM HEPES (pH 7.4), containing 20 mM MgCl2, 200 mM EDTA, 0.03% Triton-X 100, 0.3% Coating 3 reagent (Caliper Life Sciences)).
Mant-ATP (substrate) and Mant-ADP (reaction resultant product) were separated from each well after quenching the reaction, with a microchip type capillary electrophoresis apparatus 250HTS (Caliper Life Sciences). The reaction rate [(peak height of reaction resultant product)/(peak height of reaction resultant product+peak height of substrate)×100(%)] was calculated from the ratio of the substrate peak height and the reaction resultant product peak height, which were obtained by fluorescence detection (excitation wavelength 355 nm, measurement wavelength 460 nm), and used as an index of the GK activity.
For the control, the reaction rate was calculated in the same manner as above, except that a “50% dimethyl sulfoxide solution” was used instead of the “50% solution of the test compound in dimethyl sulfoxide”.
A percentage obtained by dividing the reaction rate of the well with the test compound (test compound addition group) by the reaction rate of the well with a 50% dimethyl sulfoxide solution alone (control group) was taken as the GK activation value by the test compound, and the concentration of the test compound necessary for the activation of 50% of the maximum activity value determined as an EC50 value.

| SMILES | EC50 |
| --- | --- |
| Cn1nc(Nc2nccs2)c2cc(C(F)(F)F)ccc21 [Compound 9, 1-Methyl-N-1,3-thiazol-2-yl-5-(trifluoromethyl)-1H-indazol-3-amine] | 2500 nM |
| CC(C)Cc1ccc2[nH]nc(Nc3nccs3)c2c1 [Compound 29, 5-Isobutyl-N-1,3-thiazol-2-yl-1H-indazol-3-amine] | 1200 nM |
| Brc1ccc2[nH]nc(Nc3nccs3)c2c1 [Compound 7, 5-Bromo-N-1,3-thiazol-2-yl-1H-indazol-3-amine] | 5000 nM |
| COCC(C)Oc1ccc2[nH]nc(Nc3nccs3)c2c1 (stereo not drawn) [Compound 35, 5-(2-Methoxy-1-methylethoxy)-N-1,3-thiazol-2-yl-1H-indazol-3-amine] | 2400 nM |
| CC(C)c1ccc2[nH]nc(Nc3nccs3)c2c1 [Compound 33, 5-Isopropyl-N-1,3-thiazol-2-yl-1H-indazol-3-amine] | 2900 nM |
| CC(=O)c1ccc2[nH]nc(Nc3nccs3)c2c1 [Compound 25, 1-[3-(1,3-Thiazol-2-ylamino)-1H-indazol-5-yl]ethanone] | 8600 nM |
| CC(=O)Nc1ccc2[nH]nc(Nc3nccs3)c2c1 [Compound 22, N-[3-(1,3-Thiazol-2-ylamino)-1H-indazol-5-yl]acetamide] | 15000 nM |
| CC(C)Oc1ccc2[nH]nc(Nc3nccs3)c2c1 [Compound 34, 5-Isopropoxy-N-1,3-thiazol-2-yl-1H-indazol-3-amine] | 1700 nM |
| O=[N+]([O-])c1ccc2[nH]nc(Nc3nccs3)c2c1 [Compound 20, 5-Nitro-N-1,3-thiazol-2-yl-1H-indazol-3-amine] | 6600 nM |

Source: patent publication US20070244169A1, “GLUCOKINASE ACTIVATORS” (priority 2005, published 2007)
